Consider six compounds from ChEMBL document CHEMBL1142680, “Improving specificity vs bacterial thymidylate synthases through N-dansyl modulation of didansyltyrosine” (J Med Chem, 2005).

Assay [1] deals with Thymidylate synthase (Escherichia coli, UniProt C3SWJ7). Put plainly: Inhibitory constant against thymidylate synthase from Escherichia coli.
The target of assay [2] is T1, Thymidylate synthase (Lactobacillus casei, UniProt P00469).
T1 sequence (P00469 whole entry): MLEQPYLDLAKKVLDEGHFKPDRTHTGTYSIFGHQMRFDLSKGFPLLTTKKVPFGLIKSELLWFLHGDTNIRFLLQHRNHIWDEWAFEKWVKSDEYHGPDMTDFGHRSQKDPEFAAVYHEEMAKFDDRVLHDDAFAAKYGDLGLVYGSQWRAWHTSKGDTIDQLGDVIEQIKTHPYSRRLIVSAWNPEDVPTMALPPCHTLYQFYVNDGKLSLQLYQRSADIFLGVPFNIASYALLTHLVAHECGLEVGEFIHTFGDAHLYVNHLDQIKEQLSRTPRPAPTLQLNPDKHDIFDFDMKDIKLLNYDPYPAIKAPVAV
Put plainly: Inhibitory constant against thymidylate synthase from Lactobacillus casei. Also noted: species or system Lacticaseibacillus casei.

Chain of Thymidylate synthase (Escherichia coli, UniProt C3SWJ7) (C3SWJ7 whole entry): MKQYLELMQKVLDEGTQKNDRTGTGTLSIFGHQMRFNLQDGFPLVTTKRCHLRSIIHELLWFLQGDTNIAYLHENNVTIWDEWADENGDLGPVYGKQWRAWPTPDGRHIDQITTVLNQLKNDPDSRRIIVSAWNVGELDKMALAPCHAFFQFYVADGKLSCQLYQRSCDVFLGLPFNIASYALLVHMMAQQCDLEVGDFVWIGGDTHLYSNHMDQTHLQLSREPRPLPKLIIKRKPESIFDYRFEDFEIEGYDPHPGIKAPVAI

Broadly, the Ki is the equilibrium dissociation constant of an inhibitor or competing ligand from its target. Regarding `CN(C)c1cccc2c(S(=O)(=O)N[C@@H](Cc3ccc(OS(=O)(=O)c4cccc5c(N(C)C)cccc45)cc3)C(=O)O)cccc12`, the Ki was determined as 1.8 µM in assay [1] and 1.4 µM in assay [2].
The like results for `CN(C)c1cccc2c(S(=O)(=O)Oc3ccc(C[C@H](NS(=O)(=O)c4cc5nnoc5c5ccccc45)C(=O)O)cc3)cccc12` were, in that order, 15 µM and 1.6 µM.
`CN(C)c1cccc2c(S(=O)(=O)Oc3ccc(C[C@H](NS(=O)(=O)c4cccc5cc(N)ccc45)C(=O)O)cc3)cccc12`: the inhibitory constant (Ki) in assay [1] amounted to 0.3 µM; in assay [2], 0.5 µM.
The like results for `CN(C)c1cccc2c(S(=O)(=O)Oc3ccc(C[C@H](NS(=O)(=O)c4cccc5c(NC(=O)OCc6ccccc6)cccc45)C(=O)O)cc3)cccc12` were, in that order, 9.4 µM and 0.1 µM.
As to `CN(C)c1cccc2c(S(=O)(=O)Oc3ccc(C[C@H](NS(=O)(=O)c4cccc5cc([N+](=O)[O-])ccc45)C(=O)O)cc3)cccc12`, the Ki in assay [1] and in assay [2] was 0.3 µM throughout.
As for `CN(C)c1cccc2c(S(=O)(=O)Oc3ccc(C[C@H](NS(=O)(=O)c4ccc(NC(=O)OCc5ccccc5)c5ccccc45)C(=O)O)cc3)cccc12`, the Ki was determined as 1.5 µM in assay [1] and 1.7 µM in assay [2].
